Results from patent US20250221981A1, “MAT2A INHIBITOR AND/OR TSG101 INHIBITOR FOR USE IN ANTIVIRAL THERAPY” (CAMBRIDGE ENTERPRISE LIMITED, priority 2022, published 2025).

Experiments:
[1] = system: BKPyV; assay: BKPyV infection of RPTE/TERT1 cells, immunofluorescence count of LTAg / VP1 positive cells; type: cell-based, BK polyomavirus; conditions: 48 hpi; for early gene (LTAg) expression, LTAg positive cells as a proportion of DAPI-positive cells / late gene (VP1) expression, VP1 positive cells as a proportion of DAPI-positive cells: particularly at double proliferative IC50 (20 µM PF-9366, 514 nM AG-270), MOI 1
Description: (A) Effect of PF-9366 on viral early gene expression: Cells were infected with BKPyV (MOI 1) in media containing appropriate drug concentrations. At 1 hpi infectious media was removed, cells were washed and fresh media with appropriate drug concentrations was added. Cells were formaldehyde fixed at 48 hpi and stained for DAPI and LTAg expression and detected by fluorescence microscopy. The number of infected LTAg positive cells were recorded, normalized to cell number. n=3.
Effect of drug treatment on cellular replication and survival and viral early gene expression: Cells were infected with BKPyV (MOI 1) in media containing appropriate drug concentrations. At 1 hpi infectious media was removed, cells were washed and fresh media with appropriate drug concentrations was added. Cells were formaldehyde fixed at 48 hpi and stained for nuclear DAPI and LTAg expression, then detected by fluorescence microscopy. The number of cells per well were determined through DAPI analysis (i) Effect of drug treatment on viral early and late gene expression: The number of infected cells were determined by LTAg (early gene) and VP1 (late gene) expression (ii).
Treatment began 3 hours prior to infection and continued throughout infection. Cells were infected with BKPyV (MOI 1), at 1 hpi cells were washed with PBS and replenished with fresh drug treated media. At 48 hpi cells were fixed with 3% formaldehyde and stained for LTAg expression, and the nuclei counterstained with DAPI. The number of LTAg positive cells were counted and normalised to the total cell number in each condition, and the fold change in proportion of LTAg positive cells for each concentration of PF-9366 was normalised to untreated control.
To investigate whether MAT2A inhibition by a structurally different inhibitor to PF-9366 could cause similar effects, the effect of AG-270 on BKPyV infection was investigated. As above, drugs were used to treat cells from 3 hours prior to infection. Drug concentrations used were the IC50 value defined by inhibition of cell proliferation (proliferative IC50) or double the proliferative IC50, and DMSO was used as a control. Cells were infected with BKPyV (MOI 1), at 1 hpi cells were washed and fresh drug-containing media was added. At 48 hpi cells were fixed in 3% formaldehyde and stained for DAPI, viral early gene LTAg, and viral late gene VP1. The number of cells in each condition were counted and normalised to DMSO treated cells (FIG. 4A(i)). The number of cells represents both cell viability, and the ability of the drug in question to inhibit cellular proliferation.
For BKPyV infections, RPTE/TERT1, RPTE/TERT1-Cas9 or RPTE/TERT1 MAT2A KO cells were infected with BKPyV at either a multiplicity of infection (MOI) of 5 for growth curves or an MOI of 3 or 1 for all other experiments, diluted in appropriate medium. At 1 hour post infection (hpi) medium was removed, cells were washed twice with phosphate-buffered saline (PBS), and fresh medium was added with or without inhibitors. At 24, 48, 72 or 96 hpi cells were either harvested for western blot, RT qPCR or virus titre by FFU assay, or fixed for immunofluorescence analysis.
For fluorescence intensity analysis, 20 fields of view were captured for each experiment. All quantification analyses were carried out using ImageJ and an optimised robust automated detection pipeline Schindelin et al. (Nat Methods. 2012 Jun. 28; 9 (7): 676-82). […] LTAg-staining patterns across each field of view were measured by quantifying the fluorescence intensity using the Mean Grey Value (MGV) function of ImageJ and averaging the results for each experimental condition. Individual cell fluorescence intensity was determined by drawing polygon selections around each LTAg-positive nuclei in ImageJ and measuring the nuclear area, MGV and integrated density, then doing the same for background areas close to each nuclei measured. […]

[2] = system: Herpes Simplex Virus-1 (HSV-1); assay: Western blot of HSV-1 ICP0 and VP16 proteins in HaCaT cells; type: cell-based; conditions: 20 μM, MOI 10, 16 hrs
Description: FIG. 9: Inhibition of MAT2A with PF-9366 reduces Herpes Simplex Virus-1 (HSV-1) virion assembly Immortalised keratinocyte (HaCaT) cells were plated and treated with 20 μM PF-9366 or DMSO control. After 3 hrs cells were infected with HSV-1 (MOI 10). After 16 hrs cells were harvested by scraping and either pelleted for western blot or freeze/thawed for titration. To titre: VERO cells were plated and the following day infected with 10-fold dilutions, at 1 hpi cells were overlayed with CMC/media. At 48 hpi cells were fixed and stained with toluidine blue. To western blot: Pellets were lysed and run on SDS-PAGE gel. Proteins were transferred overnight to nitrocellulose membranes. Membranes were probed for HSV-1 ICP0 and VP16 proteins and Tubulin as a control.
For HSV-1 infections HaCaT cells were infected with HSV-1 at a multiplicity of infection (MOI) of 10 diluted in appropriate medium. At 1 hour post infection (hpi) medium was removed, cells were washed twice with phosphate-buffered saline (PBS), and fresh medium was added with or without inhibitors. At 16 hpi cells were either harvested for western blot or virus titre by plaque assay.
Cell lysate preparation and western blots were performed as described in Ren et al. (J Gen Virol. 2012 February; 93 (Pt 2): 319-329). […] Quantification was performed using LI-COR Image Studio Software.

[3] = system: Sindbis virus (SINV); assay: SINV titre by plaque assay (BHK-21 cells infected, titrated on BSR cells); type: cell-based; conditions: 2 μM, MOI >10, 24 hrs, initial tests
Description: (A) SINV and SFV4: BHK-21 cells were plated. The following day 2 μM PF-9366 or DMSO control was added to media. After 3 hrs cells were infected with SINV or SFV4 (MOI >10). After 24 hrs cells were harvested by scraping. Cells were either pelleted for western blot or freeze/thawed for titration. To titre: BSR cells were plated and the following day infected with 10-fold dilutions, at 1 hpi cells were overlayed with LMA in 2×MEM (+5% FCS). At 72 hpi cells were fixed and stained with toluidine blue.
For Alphavirus infections BHK-21 cells were infected with either SINV or SFV-4 at a multiplicity of infection (MOI) greater than 10, diluted in appropriate medium. At 1 hour post infection (hpi) medium was removed, cells were washed twice with phosphate-buffered saline (PBS), and fresh medium was added. At 24 hpi supernatants were harvested for virus titre by plaque assay.
For SINV and SFV4, confluent BSR cell monolayers were infected with 10-fold dilutions of samples. At 1 hpi cells were overlayed with low melting-point agarose in 2×MEM (+5% FCS). Cells were fixed at 72 hpi and stained with toluidine blue, allowing plaques to be counted.
TSG101 inhibitor Ilaprazole (Sigma-Aldrich) was diluted in 100% DMSO. […]

Compound | early gene (LTAg) expression, LTAg positive cells as a proportion of DAPI-positive cells [1] | late gene (VP1) expression, VP1 positive cells as a proportion of DAPI-positive cells [1] | reduction in LTAg positive cells ([1]; 40 μM, BKPyV MOI 1, normalised to untreated control) [%] | number of LTAg positive cells ([1]; PF-9366 concentrations of 5 μM and above, BKPyV MOI 1, treatment from 3 h prior to infection) | impact on viral protein expression (ICP0 and VP16) [2] | reduction in viral titre (SINV) [3]
COc1ccc(-c2c(Nc3ccccn3)[nH]c3c(C4=CCCCC4)c(-c4ccccc4)nn3c2=O)cc1 [AG-270] | reduced | reduced |  |  |  | 
CN(C)CCc1nnc2cc(-c3ccccc3)c3cc(Cl)ccc3n12 [PF-9366] | reduced | reduced | ~95 | significantly reduced | little impact | 7-10 fold
